Experimental findings from patent US20110129423A1, “ANTICANCER COMPOUNDS AND SCREENING METHOD” (priority 2009, published 2011) are described below.

The test system of one data set is steroidogenesis in dogs. In words: Effects on steroidogenesis in dogs in vivo (plasma T, A4, DHEA by LC-MS/MS). On the set-up: species or system dog. The settings on record: for Testosterone Concentrations: male dogs. The method, then:
(§1) Effects of the test compound 17α-ethynylandrostane-3α,17β-[…] on steroidogenesis in dogs in vivo. Samples were collected from male dogs (5/group) treated with 0, 20, 60 or 200 mg/kg of 17α-ethynylandrostane-3α,17β-diol before dosing on days 1, 14, and 28. The animals were dosed daily for 28 days. The samples were analyzed for testosterone (T), androstendione (A4), and dehydroepiandrosterone (DHEA). Day 1 and day 28 vehicle and 60 mg/kg samples were assayed for luteinizing hormone. The compound was administered by oral administration of a 20 mg/mL 17α-ethynylandrostane-3α,17β-diol solution made of 40% 2-hydroxypropyl-β-cyclodextrin in water.
(§2) T, A4 and DHEA assay. Plasma samples were processed by liquid/liquid extraction using MTBE (methyl-t-butyl ether). The organic portions containing the free steroids were evaporated and the dried extracts were incubated at 60° C. with a hydroxylamine hydrochloride solution. The resulting steroid-oxime derivatives were extracted with MTBE. The organic portions containing the steroid-oxime derivatives were evaporated to dryness, reconstituted in 80/20 water/acetonitrile, and analyzed on a Waters Xbridge™ Phenyl column by reversed-phase high-performance liquid chromatography (Agilent, Palo Alto, Calif. and Leap Technologies, Carrboro, N.C.) coupled with a tandem quadrupole mass spectrometer (Waters, Beverly, Mass.). Calibration curves prepared in water and QC samples prepared in native plasma for T (4-androstene-3-one-17β-ol), A4 (4-androstene-3,17-dione), and DHEA were analyzed in parallel with the samples. Sample responses were acquired and concentrations were determined based on the calibration curve using Masslynx™ analysis software (Waters, Beverly, Mass.). Determination of QC statistics was performed by subtracting the endogenous concentration determined in native plasma from the total concentration found in the QC sample.
The quantifiable range of detection for T was 10.0 to 20000.0 pg/mL in rat (example 3) and dog (this example) samples. The quantifiable range of detection for A4 was 10.0 to 20000.0 pg/mL in rats and 20.0 to 20000.0 pg/mL in dogs. The quantifiable range of detection for DHEA was 50.0 to 200.0 pg/mL in both species. Values below the detection limit were identified as such.

The test system of data set [1] is systemic (serum) levels of testosterone, estradiol, estrone and DHEA. In words: Systemic steroid hormone levels in rats dosed daily for 14 days. It counts as in vivo, rat. The settings on record: 100 mg/kg daily, by day 7. The method, then: Plasma samples were processed by liquid/liquid extraction using MTBE. The organic portions containing the analytes were evaporated and dried extracts were incubated at 60° C. with a dansyl chloride solution. The resulting steroid derivatives were analyzed on a Waters Xbridge™ Phenyl column by reversed-phase high-performance liquid chromatography (Agilent, Palo Alto, Calif. and Leap Technologies, Carrboro, N.C.) coupled with a tandem quadrupole mass spectrometer (Waters, Beverly, Mass.). Calibration curves for standards and QC samples for […] (Estradiol, E2) and Estrone (E1) were analyzed in parallel with the samples. Sample responses were acquired and concentrations were determined based on the calibration using Masslynx™ analysis software (Waters, Beverly, Mass.). Determination of QC statistics was performed by subtracting the endogenous concentration determined in native plasma from the total concentration found in the QC sample. No PK calculations were performed on this study. The quantifiable range of detection for E2 was 5.0 to 200.0 pg/mL. The quantifiable range of detection for E1 was 10.0 to 200.0 pg/mL. Values below the detection limit were identified as such and reported.
as §2
The quantifiable range of detection for T was 10.0 to 20000.0 pg/mL in rat (example 3) and dog (this example) samples. The quantifiable range of detection for A4 was 10.0 to 20000.0 pg/mL in rats and 20.0 to 20000.0 pg/mL in dogs. The quantifiable range of detection for DHEA was 50.0 to 200.0 pg/mL in both species. […]

A further data set relates to ACTH, LH, and FSH. Nature of the data set: Peptide hormone assays (ELISA) in rat plasma. It counts as in vivo. Conditions: rats, 100 mg/kg daily for 14 days. The protocol: Peptide Hormone Assays. ELISA kits for the quantification of ACTH, LH, and FSH in rat plasma were obtained from USCN Life, Wuhan, China. All other reagents were obtained from Sigma Chemical Co, St. Louis, Mo. ELISA results were measured on an ELx800 plate reader (Bio-Tek, Winooski, Vt.). Samples were assayed for ACTH, LH, and FSH concentration by means of an ELISA assay kit according to the manufacturer's instructions. For the rat samples, although 100 μL of undiluted plasma were required for each assay, […], 100 μL (LH), or 30 μL (FSH) were used in order to obtain results in the quantifiable range of the assay. Samples from Day 14 were assayed in duplicate; samples from Day 0 and Day 7 were assayed singly due to the small sample volume available. Concentrations were calculated from an eight-point standard curve. Thirty-five μL of dog plasma was used for the LH assay.
The compound 17α-ethynylandrostane-3α,17β-diol (100 mg/kg) was administered to rats (n=5) daily for 14 days. The compound was a 20 mg/mL solution made of […] 2-hydroxypropyl-β-cyclodextrin in water. Vehicle lacking the compound was administered to control animals (n=5). By day 7 in the dosing period, systemic (serum) levels of testosterone, estradiol, estrone and DHEA had fallen by over 99% to essentially undetectable levels in the treated animals. Changes in LH, FSH and ACTH were not observed.

A short description of data set [2]: Toxicity observation in the 28-day dog study. It is filed as in vivo. Conditions: dogs, 20, 60 or 200 mg/kg oral daily for 28 days. The method, then:
as §1

Setting [3] is: dogs, end of 28 days of daily oral dosing, dose group not specified.

SMILES strings stand for the structures. Values joined by “and” are separate entries in the source; they are usually repeats but may differ in a detail not shown here. Equal entries are not always repeated.

For `C#C[C@]1(O)CC[C@H]2[C@@H]3CCC4C[C@H](O)CC[C@]4(C)[C@H]3CC[C@@]21C` (stereo partly drawn) [17α-ethynylandrostane-3α,17β-diol], the “decrease of A4 (androstendione) level compared to vehicle control” value in the data set on steroidogenesis in dogs (setting [3]) is “about 99%”. For the same molecule, the “decrease of DHEA level” value with steroidogenesis in dogs (setting [3]) is recorded as “about 90%”. Further, the “decrease of T (testosterone) level compared to vehicle control” value in the data set with steroidogenesis in dogs (setting [3]) is “about 99%”. The “Testosterone Concentrations” value is 1747.2 pg/mL and 1677.0 pg/mL and 668.6 pg/mL and 771.4 pg/mL and 2450.6 pg/mL in the data set on steroidogenesis in dogs (20 mg/kg oral daily, day 1 sample before dosing (baseline), individual animals A111M-A115M, 20 mg/kg); 67.8 pg/mL and 51.1 pg/mL and 344.9 pg/mL and 90.1 pg/mL and 94.4 pg/mL with steroidogenesis in dogs (20 mg/kg oral daily, day 14, individual animals A111M-A115M, 20 mg/kg); 19.3 pg/mL and 60.8 pg/mL and 143.8 pg/mL and 173.0 pg/mL and BQL in the data set on steroidogenesis in dogs (20 mg/kg oral daily, day 28, individual animals A111M-A115M, BQL = below the limit of quantitation (lower limit 10.0 pg/mL), 20 mg/kg); 46.9 pg/mL and 711.2 pg/mL and 723.8 pg/mL and 1371.3 pg/mL and 1659.6 pg/mL in the data set on steroidogenesis in dogs (60 mg/kg oral daily, day 1 sample before dosing (baseline), individual animals A121M-A125M, 60 mg/kg); 173.7 pg/mL and 38.5 pg/mL and 110.4 pg/mL and 144.1 pg/mL and 338.0 pg/mL in the data set with steroidogenesis in dogs (60 mg/kg oral daily, day 14, individual animals A121M-A125M, 60 mg/kg); 18.9 pg/mL and BQL (4×) in the data set on steroidogenesis in dogs (60 mg/kg oral daily, day 28, individual animals A121M-A125M, BQL = below the limit of quantitation (lower limit 10.0 pg/mL), 60 mg/kg). The “Testosterone Concentrations” value with steroidogenesis in dogs (200 mg/kg oral daily, day 1 sample before dosing (baseline), individual animals A131M-A135M, 200 mg/kg) is 503.3 pg/mL and 350.3 pg/mL and 1816.6 pg/mL and 1891.0 pg/mL; with steroidogenesis in dogs (200 mg/kg oral daily, day 14, individual animals A131M-A135M, BQL = below the limit of quantitation (lower limit 10.0 pg/mL), 200 mg/kg), “BQL (2×) and 119.5 pg/mL and 236.6 pg/mL and 18.1 pg/mL”; in the data set with steroidogenesis in dogs (200 mg/kg oral daily, day 28, individual animals A131M-A135M, BQL = below the limit of quantitation (lower limit 10.0 pg/mL), 200 mg/kg) it was “BQL (2×) and 11.2 pg/mL and 10.2 pg/mL”. Besides, in data set [1], the “fall of systemic (serum) level of DHEA” value is “over 99%”. For the same molecule, the “fall of systemic (serum) level of estradiol” value in data set [1] is listed as “over 99%”. Besides, in data set [1], the “fall of systemic (serum) level of estrone” value is on record as “over 99%”. Further, the “fall of systemic (serum) level of testosterone” value in data set [1] was “over 99%”. In the data set with ACTH, LH, and FSH, the “changes in ACTH” value is recorded as “not observed”. In the data set with ACTH, LH, and FSH, the “changes in FSH” value is reported as “not observed”. In addition, the “changes in LH” value in the data set with ACTH, LH, and FSH is listed as “not observed”. Besides, the “toxicity in the animals” value in data set [2] is “Significant toxicity was not observed”.
